Measured values published in ChEMBL document CHEMBL1136069, “Urea small molecule agonists on mouse melanocortin receptors” (Bioorg Med Chem Lett, 2003).

How the values were obtained:
Melanocortin receptor 3 = Melanocortin receptor 3 (Mus musculus, UniProt P33033); assay: Agonist activity on mouse Melanocortin 3 receptor (mMC3R) stably expressed in HEK cells; assay type: functional, cell-based, HEK293
Melanocortin receptor 5 = Melanocortin receptor 5 (Mus musculus, UniProt P41149); assay: Agonist activity on mouse melanocortin 5 receptor (mMC5R) stably expressed in […] cells; assay type: functional, cell-based
Melanocortin receptor 5, sequence (P41149 whole entry): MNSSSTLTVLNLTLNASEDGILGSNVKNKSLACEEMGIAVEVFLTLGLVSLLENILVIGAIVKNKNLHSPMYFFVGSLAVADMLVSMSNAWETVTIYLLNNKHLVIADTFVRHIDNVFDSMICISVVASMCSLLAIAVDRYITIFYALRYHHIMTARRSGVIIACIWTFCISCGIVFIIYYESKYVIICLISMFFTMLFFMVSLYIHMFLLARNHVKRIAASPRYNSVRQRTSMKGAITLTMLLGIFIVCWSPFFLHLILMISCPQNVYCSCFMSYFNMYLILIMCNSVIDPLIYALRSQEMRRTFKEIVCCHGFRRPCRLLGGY

[1] = target: Melanocyte-stimulating hormone receptor (Mus musculus, UniProt Q01727); assay: Agonist activity on mouse melanocortin 1 receptor (mMC1R) stably expressed in HEK cells; assay type: functional, cell-based, HEK293
Melanocyte-stimulating hormone receptor, sequence (Q01727 whole entry): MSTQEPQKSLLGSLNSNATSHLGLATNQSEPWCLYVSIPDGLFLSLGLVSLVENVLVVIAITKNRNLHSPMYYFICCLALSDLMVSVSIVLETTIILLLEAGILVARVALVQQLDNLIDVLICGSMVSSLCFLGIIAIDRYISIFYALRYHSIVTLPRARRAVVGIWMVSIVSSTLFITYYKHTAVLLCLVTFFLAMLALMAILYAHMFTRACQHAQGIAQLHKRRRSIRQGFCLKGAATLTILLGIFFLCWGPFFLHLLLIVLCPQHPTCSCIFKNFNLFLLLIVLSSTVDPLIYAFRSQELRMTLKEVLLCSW

Melanocortin receptor 4 = Melanocortin receptor 4 (Mus musculus, UniProt P56450); assay: Agonist activity on mouse melanocortin 4 receptor (mMC4R) stably expressed in […] cells; assay type: functional, cell-based
Melanocortin receptor 4, sequence (P56450 whole entry): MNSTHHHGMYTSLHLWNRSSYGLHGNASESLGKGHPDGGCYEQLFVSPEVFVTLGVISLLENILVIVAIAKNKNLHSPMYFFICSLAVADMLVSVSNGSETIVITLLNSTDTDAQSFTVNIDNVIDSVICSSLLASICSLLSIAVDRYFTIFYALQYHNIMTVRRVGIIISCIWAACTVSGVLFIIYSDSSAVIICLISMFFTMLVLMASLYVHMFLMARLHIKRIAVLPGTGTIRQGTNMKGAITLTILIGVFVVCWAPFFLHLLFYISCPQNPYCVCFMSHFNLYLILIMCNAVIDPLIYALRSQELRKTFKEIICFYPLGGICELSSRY

Melanocortin receptor 3, sequence (P33033 whole entry): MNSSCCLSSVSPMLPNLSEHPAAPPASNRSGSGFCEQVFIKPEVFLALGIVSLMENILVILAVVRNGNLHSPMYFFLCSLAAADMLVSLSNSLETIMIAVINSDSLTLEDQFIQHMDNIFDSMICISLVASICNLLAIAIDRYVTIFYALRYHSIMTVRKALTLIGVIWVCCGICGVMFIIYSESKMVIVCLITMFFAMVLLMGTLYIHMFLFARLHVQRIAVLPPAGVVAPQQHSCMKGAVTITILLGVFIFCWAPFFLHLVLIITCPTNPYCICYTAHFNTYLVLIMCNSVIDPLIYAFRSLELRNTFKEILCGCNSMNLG

| SMILES | EC50 (Melanocortin receptor 3) | EC50 (Melanocortin receptor 5) | EC50 [1] | EC50 (Melanocortin receptor 4) |
| --- | --- | --- | --- | --- |
| Cc1cccc(CNC(=O)[C@H](Cc2c[nH]c3ccccc23)NC(=O)NCc2ccccc2)c1 | > 100 µM | > 100 µM | 28 µM | > 100 µM |
| NCCCCCNC(=O)[C@H](Cc1c[nH]c2ccccc12)NC(=O)NCc1ccccc1 | > 100 µM | 20 µM | 14.8 µM | > 100 µM |
| NCc1ccc(NC(=O)[C@H](Cc2c[nH]c3ccccc23)NC(=O)NCc2ccccc2)cc1 | 10.7 µM | 4.9 µM | 0.4 µM | 0.4 µM |
| NCCCCNC(=O)[C@H](Cc1c[nH]c2ccccc12)NC(=O)NCc1ccccc1 | > 100 µM | 30.5 µM | 55 µM | 23.7 µM |
| NCCCNC(=O)[C@H](Cc1c[nH]c2ccccc12)NC(=O)NCc1ccccc1 | > 100 µM | 39.9 µM | 51.2 µM | > 100 µM |
| NCCCCCCNC(=O)[C@H](Cc1c[nH]c2ccccc12)NC(=O)NCc1ccccc1 | > 100 µM | > 100 µM | 22.3 µM | > 100 µM |
| NCCCCNC(=O)[C@H](Cc1c[nH]c2ccccc12)NC(=O)NCCc1ccccc1 | > 100 µM | > 100 µM | > 100 µM | > 100 µM |
| CC1CCN(CNC(=O)[C@H](Cc2c[nH]c3ccccc23)NC(=O)NCc2ccccc2)CC1 | 4.4 µM | 8.2 µM | 5.2 µM | > 100 µM |
| NCCCCNC(=O)[C@H](Cc1c[nH]c2ccccc12)NC(=O)NN1CCC(Cc2ccccc2)CC1 | 100 µM | 28.9 µM | 20 µM | 100 µM |
| NCCCCNC(=O)[C@@H](Cc1c[nH]c2ccccc12)NC(=O)NCc1ccccc1 | 100 µM | 32.8 µM | 42.4 µM | 23.7 µM |
| NCCCCNC(=O)[C@H](CCc1ccccc1)NC(=O)NCc1ccccc1 | > 100 µM | > 100 µM | > 100 µM | > 100 µM |
| NCCCCNC(=O)[C@H](Cc1ccc(OCc2ccccc2)cc1)NC(=O)NCc1ccccc1 | > 100 µM | 14.4 µM | 20.5 µM | > 100 µM |
| NCCCCNC(=O)[C@H](Cc1c[nH]c2ccccc12)NC(=O)NN1CCc2ccccc2C1 | 1.7 µM | 4.9 µM | 7.9 µM | 3.4 µM |
| NCCCCNC(=O)[C@H](Cc1c[nH]c2ccccc12)NC(=O)NC1CCN(Cc2ccccc2)CC1 | 4.4 µM | 8.2 µM | 5 µM | 2.8 µM |
